Measurements as given in PubChem BioAssay AID463199 (Broad Institute, 2010).
Active and inactive are the calls of the source.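 Rule for the calls: active = AC50, the dose giving half-maximal effect, exceeds a fixed cutoff for a compound that rescues yeast growth under heat; inactive = the rest, inconclusive results apart.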

Test system: S. cerevisiae Burl-1 ts mutant growth, BacTiter-Glo, 38.5C 24 h
Assay: restored growth of temperature-sensitive Burl-1 yeast – whole organism, S. cerevisiae, Burl-1 ts mutant, luminescence, counter-screen for SUMOylation pathway inhibitor project, dose response (AID 463199)

SMILES | AC50
C/C(=N\NC(=S)Nc1ccccc1)C1Cc2ccccc2C(=O)O1 (centres undefined) | > 42 µM (inactive)
CN(C)c1ccc(C(=O)N2CCCC(CCC(=O)N3CCN(c4ccccn4)CC3)C2)cc1 (centres undefined) | > 42 µM (inactive)
Cc1ccc(-n2nc3c(=O)n(CCCC(=O)NCc4cccc(F)c4)nc(C)c3c2C)cc1 | > 42 µM (inactive)
CC(C)NC(=O)CCCc1cn(C)c2ccccc12 | > 42 µM (inactive)
c1ccc(-c2nc(NCc3ccco3)c3ccccc3n2)nc1 | > 42 µM (inactive)
Cc1cc2c3c(c1)C1(SCC(=O)N1c1ccc(F)cc1)C(=O)N3C(C)(C)CC2C (centres undefined) | > 42 µM (inactive)
c1ccc(CNc2ccc3ccccc3n2)nc1 | > 42 µM (inactive)
CC(NC(=O)C1CCCCC1)C(=O)NC1=NCCS1 (centres undefined) | > 42 µM (inactive)
O=C(Nc1ccc2c(c1)CCCN2C(=O)c1cccs1)c1cccc(F)c1 | > 42 µM (inactive)
CS(=O)(=O)N(CC(=O)NCCSCc1ccccc1)c1ccc2c(c1)OCO2 | > 42 µM (inactive)
CCOC(=O)C1(Cc2cccc(OC)c2)CCCN(S(=O)(=O)c2cccnc2)C1 (centres undefined) | > 42 µM (inactive)
Cc1ccc(C(C[N+](=O)[O-])c2c(C)[nH]n(-c3ccccc3)c2=O)cc1 (centres undefined) | 39.7 µM
Cc1ccccc1C(=O)NN(C)c1nc2ccccc2nc1C(F)(F)F | > 42 µM (inactive)
COc1cccc(NC(=O)Nc2cc(C(=O)NC(C)C)ccc2N2CC3CC(C2)c2cccc(=O)n2C3)c1 (centres undefined) | > 42 µM (inactive)
Cc1cc(C)c2cc(C)c3nnc(SCC(=O)NCc4ccc5c(c4)OCO5)n3c2c1 | > 42 µM (inactive)
O=C1CC(c2c[nH]c3ccccc23)C(=O)N1c1ccccc1 (centres undefined) | > 42 µM (inactive)
O=C(O)c1ccc(/C=N/NC(=O)c2cc(-c3ccc4c5c(cccc35)CC4)n[nH]2)cc1 | > 42 µM (inactive)
CCC(=O)Nc1ccc(Br)c(Cl)c1 | > 42 µM (inactive)
C=C(C)Cn1c(SCC(=O)N/N=C/c2ccccc2OCC(=O)O)nnc1-c1ccc(Br)cc1 | > 42 µM (inactive)
COc1ccc(C(=O)NCCSc2ccc(C)cc2)cc1 | > 42 µM (inactive)
COC(=O)CSc1ccc(S(=O)(=O)N2CCCCCC2)cc1[N+](=O)[O-] | > 42 µM (inactive)
CCc1ccccc1NC(=S)NNC(=O)c1ccccc1Cl | > 42 µM (inactive)
Cc1cccc(OCCC(=O)Nc2ccc(F)c(F)c2)c1 | > 42 µM (inactive)
CCCCNC(=O)N1CCC(CCC(=O)N(C)Cc2ccccc2)CC1 | > 42 µM (inactive)
c1ccc(-c2csc(NC3CCCCC3)n2)cc1 | > 42 µM (inactive)

SMILES | AC50
Cc1ccc(C(=O)NC(NC(=O)c2ccc(C)cc2)C(Cl)Cl)cc1 | > 42 µM (inactive)
O=C(NCCNc1ccc(Cl)cc1[N+](=O)[O-])c1ccccc1F | > 42 µM (inactive)
CCOC(=O)C1=Nc2ccccc2C1=[N+]=[N-] | > 42 µM (inactive)
CC(=O)c1cccc(N2C(=NC(=O)C3CCCCC3)SC3CS(=O)(=O)CC32)c1 (centres undefined) | > 42 µM (inactive)
COc1ccc(C)cc1NC(=S)N1CCN(c2ccccn2)CC1 | > 42 µM (inactive)
CN(c1ccccc1)c1ccc(/C=C/[N+](=O)[O-])cc1 | > 42 µM (inactive)
CCOc1c(Cl)cc(CNCC(O)c2ccccc2)cc1OC (centres undefined) | > 42 µM (inactive)
COc1cc(S(=O)(=O)N2CCN(c3ccccc3)CC2)ccc1F | > 42 µM (inactive)
Cc1ccc(NC(=O)C(CC(C)C)NC(=O)C2CCC(C)CC2)nc1 (centres undefined) | > 42 µM (inactive)
O=S(=O)(Nc1cccc2cn[nH]c12)c1ccc(F)cc1 | > 42 µM (inactive)
O=Cc1cn(Cc2ccccc2F)c2ccccc12 | > 42 µM (inactive)
COc1cccc(S(=O)(=O)Nc2cccc(C(=O)N3CCOCC3)c2)c1 | > 42 µM (inactive)
CCOc1ccccc1NC(=O)c1ccc2c(c1)C(=O)N(CC(C)C)C2=O | > 42 µM (inactive)
Cc1cc(C(=O)OCC(=O)Nc2cccc(S(N)(=O)=O)c2)c2ccccc2n1 | > 42 µM (inactive)
CN(CC(=O)Nc1ccccc1Sc1ccccc1)Cc1nc2ccccc2c(=O)[nH]1 | > 42 µM (inactive)
O=C(O)c1cccc(N2C(=O)C3C4C=CC(C4=C(c4ccccc4)c4ccccc4)C3C2=O)c1 (centres undefined) | > 42 µM (inactive)
CCOc1ccc(CCNC(=O)COC(=O)c2cccc(OC)c2O)cc1OCC | > 42 µM (inactive)
CCNc1ccccc(C(=O)/C=C/c2ccc3c(c2)OCO3)c1=O | > 42 µM (inactive)
O=C(N/N=C\c1cn(-c2ccccc2)nc1-c1ccccc1)c1ccc(Br)o1 | > 42 µM (inactive)
Cc1nn(CC(N)=O)c(=O)c2ccccc12 | > 42 µM (inactive)
CCC(=O)N(Cc1ccc2c(c1)OCO2)Cc1cc2cc(OC)ccc2[nH]c1=O | > 42 µM (inactive)
Cc1nnc(C)n1/N=C/c1cc2ccccc2nc1Cl | > 42 µM (inactive)
COc1ccccc1N1CCN(CCN2C(=O)C3CCCCN3C2=O)CC1 (centres undefined) | > 42 µM (inactive)
O=C1Nc2ccccc2/C1=C/c1ccc([N+](=O)[O-])cc1 | > 42 µM (inactive)
Cc1nc2sc(C(c3ccccc3)N3CCC(O)CC3)c(O)n2n1 (centres undefined) | > 42 µM (inactive)

SMILES | AC50
COc1cc(/C=N/NC(=O)c2ccncc2)ccc1OC(=O)c1ccco1 | > 42 µM (inactive)
CN(C)S(=O)(=O)c1cc(NC(=O)CSc2nn(-c3ccc(Cl)cc3)c(=S)s2)ccc1Cl | > 42 µM (inactive)
Cc1cc(C)nc(-n2nc(C)cc2NC(=O)CNCc2ccccc2)n1 | > 42 µM (inactive)
O=C(OCc1nc2ccsc2c(=O)[nH]1)c1ccco1 | > 42 µM (inactive)
CN(C)c1ccnc2sc3c(NCC(O)CO)ncnc3c12 (centres undefined) | > 42 µM (inactive)
O=C(c1ccc(CS(=O)(=O)c2ccccc2)o1)N1CCOCC1 | > 42 µM (inactive)
CCOc1ccc(C(=O)Nc2ccc(CN3CCOCC3)cc2)cc1Br | 41.9 µM
Cc1ccc(S(=O)(=O)NNC(=O)c2cc3cc4ccccc4nc3s2)cc1 | > 42 µM (inactive)
O=Nc1c(-c2cccc([N+](=O)[O-])c2)nc2ncccn12 | > 42 µM (inactive)
Cc1cc(O)c(/C=N/Nc2cccc(Cl)c2)c(=O)o1 | > 42 µM (inactive)
CCN1C(=O)N(C)[C@@H](c2ccccc2)C(C(=O)OC)=C1C | > 42 µM (inactive)
COCCNC(=O)NC(=O)CSc1nc(C)c(C)c(C)n1 | > 42 µM (inactive)
CCOc1cc(/C=N/NC(=O)C(=O)N/N=C/c2ccc(O)c(OCC)c2)ccc1O | > 42 µM (inactive)
C=CCOc1ccccc1CN1CCCC(CCC(=O)N(C)CCc2ccccn2)C1 (centres undefined) | > 21 µM (inactive)
CCCCOC(=O)/C(=C/C=C/c1ccccc1)NC(=O)c1ccccc1 | > 42 µM (inactive)
CCOC(=O)c1sc(NC(=O)C(CC)OC(=O)c2ccco2)nc1C (centres undefined) | > 42 µM (inactive)
Cc1cccn2c(=O)c3cc(C(=O)NCc4cccnc4)c(=N)n(C(C)C)c3nc12 | > 42 µM (inactive)
CC1Cc2ccccc2N1C(=O)Cn1c(=O)cc(O)c2ccccc21 (centres undefined) | > 42 µM (inactive)
CN(NC(=O)c1ccccc1F)c1nc(C(F)(F)F)nc2ccccc12 | > 42 µM (inactive)
COc1ccc(C2=NN(C(=S)Nc3ccccc3)C(c3ccccc3)C2)cc1 (centres undefined) | > 42 µM (inactive)
O=c1/c(=C/c2ccco2)sc2nc(-c3ccccc3Br)nn12 | > 42 µM (inactive)
CCCCN(C)C(=O)c1cc2c(Cl)nc3ccccc3c2s1 | > 42 µM (inactive)
COc1ccccc1CCNC(=O)/C(=C/c1cccnc1)NC(=O)c1ccccc1 | > 42 µM (inactive)
CN(C)C(CNC(=O)CNC(=O)c1ccc(Br)cc1)c1ccccc1 (centres undefined) | > 42 µM (inactive)
CCOc1ccccc1N(CC(=O)Nc1ccccc1C(=O)N1CCCC1)S(C)(=O)=O | > 42 µM (inactive)

SMILES | AC50
O=C(CN(CC1CCCO1)C(=O)CNS(=O)(=O)c1ccc(F)cc1)NCc1ccccc1 (centres undefined) | > 42 µM (inactive)
Cc1cc(C)c2c(=O)[nH]cnc2n1 | > 42 µM (inactive)
COc1cc(C(c2c(C)[nH][nH]c2=O)c2c(C)[nH][nH]c2=O)cc(OC)c1OC | > 42 µM (inactive)
CC1=CC(=O)C=CC1(C)C(Cl)(Cl)Cl (centres undefined) | > 42 µM (inactive)
Cc1cc(C)n(C(=O)c2ccccc2[N+](=O)[O-])n1 | > 42 µM (inactive)
CC1(C)c2[nH]c3ccccc3c2C[C@H]2C(=O)N(Cc3cccc(F)c3)C(=O)N21 | > 42 µM (inactive)
CCN(C(=O)COC(=O)c1c(-c2ccccc2)noc1C)c1c(N)n(Cc2ccccc2)c(=O)[nH]c1=O | > 42 µM (inactive)
CCOc1ccc(NC(=O)CN(C)C(=O)c2ccc(OCc3ccccc3)c(OC)c2)cc1OCC | > 42 µM (inactive)
Cc1cc2c(C)ccc(C)c2nc1SCC(=O)c1cccs1 | > 42 µM (inactive)
CN(C)c1ccc(CN(Cc2ccco2)C(=O)c2ccco2)cc1 | > 42 µM (inactive)
CCC(C)[C@H](NC(=O)Nc1ccc(S(N)(=O)=O)cc1)C(=O)OC (some centres undefined) | > 42 µM (inactive)
Cc1c(N=Cc2cc(Br)cc(Br)c2O)cccc1C(=O)O | > 42 µM (inactive)
Nc1nnc(CC(=O)N2CCCCC2)s1 | > 42 µM (inactive)
Fc1ccc2c(c1)nnn2C1CCN(Cc2nnnn2C2CCCCC2)CC1 | > 42 µM (inactive)
O=S1(=O)C=C(Sc2nnc(-c3ccccc3)o2)c2ccccc21 | 8.23 µM
CCN(CC)S(=O)(=O)c1ccc(S(=O)(=O)N2CCC(C(=O)NC3CCN(Cc4ccccc4)CC3)CC2)cc1 | > 42 µM (inactive)
O=C(O)C1C(C(=O)O)C2(Cl)C(Cl)=C(Cl)C1(Cl)C2(Cl)Cl (centres undefined) | > 42 µM (inactive)
Cc1ccc(N/N=C2/CCCNC2=O)cc1 | > 42 µM (inactive)
OC(COCc1cccs1)CN1CCCCCC1 (centres undefined) | > 42 µM (inactive)
O=C1COc2ccc(C(=O)COC(=O)c3ncc(Cl)c(Cl)c3Cl)cc2N1 | > 42 µM (inactive)
COCCn1c(SCc2ccc(Cl)cc2)nc2c1c(=O)[nH]c(=O)n2C | > 42 µM (inactive)
O=C(CSc1nc2ccc(Nc3nc(N4CCOCC4)nc(N4CCOCC4)n3)cc2s1)N1CCOCC1 | > 42 µM (inactive)
CC(=O)Nc1cccc(NC(=S)Nc2ccc(F)cc2F)c1 | > 42 µM (inactive)
Cc1cccc(N=C2C(=O)Nc3c(Cl)cccc32)c1 | > 42 µM (inactive)
